Reference: patent US12370182B2, “Bicyclic derivatives as GABAA A5 receptor modulators” (RICHTER GEDEON NYRT., priority 2018, dated 2025)

Assays:
[1] = target: T1, human recombinant GABAA α5β3γ2 receptor (Homo sapiens (Human), UniProt P18507+P31644); experiment: Functional assay, QPatch automated patch clamp, GABA-evoked currents; type: cell-based; conditions: test compound 10 μM, 1 μM GABA, HEK293 cells, percentage modulation of peak current
Method: (§1) Human HEK293 cell lines expressing GABAA α1β3γ2 and GABAAα5β3γ2 receptors were used in functional assays using the QPatch automated patch clamp system.
(§2) HEK293 cell lines stably expressing human recombinant GABAA α1β3γ2 receptor subunits (Millipore, CYL3073) or human recombinant GABAA α5β3γ2 receptor subunits (Millipore, CYL3053) were cultured in DMEM supplemented with 10% FBS (Gibco), passed two times per week and plated on Petri dishes previously coated with poly-d-lysine.
(§3) Automated whole-cell patch clamp recordings were made from cells 2-4 days after plating. Cells were detached using trypsin/EDTA (Sigma) treatment (2 minutes in 0.25% trypsin at 37° C.), then, after centrifugation (125 G, 3 min, 2×), resuspended in a serum-free based media (Gibco, CHO—S-SFM-II) containing 12.5 mM HEPES, 1× penicillin-streptomycin-amphotericin (SigmaMix) and soybean trypsin inhibitor (Sigma, 0.04 mg/ml).
(§4) Cell suspension, as well as the extracellular solution (130 mM NaCl, 5 mM KCl, 5.1 mM HEPES, 4.9 mM HEPES-Na, 10 mM CaCl2), 2 mM MgCl2, 10 mM glucose and 0.1% DMSO, pH=7.35-7.4) and the intracellular solution (80 mM KCl, 50 mM KF, 36 mM KOH, 10 mM EGTA, 10 mM HEPES, 1.75 mM MgCl2, 0.5 mM CaCl2), 4 mM Na2ATP. 14 mM phosphocreatine, 50 U/ml creatine-phosphokinase, 0.3 mM GTP, pH=7.25-7.3) were added to the QPatch-HTX automated patch clamp system (Sophion) in single-cell mode at room temperature. […] At the end of the experiment 100 μM GABA was applied to saturate the GABA-response and to assess the efficacy of the control GABA application.
(§5) The percentage modulation was calculated from the comparison of GABA-evoked peak current amplitudes in the presence and absence of the test compound.

[2] = target: human recombinant GABAA α1β3γ2 receptor (Homo sapiens (Human), UniProt P14867+P18507); experiment: as above; type: cell-based; conditions: test compound 10 μM, 1 μM GABA, HEK293 cells, percentage modulation of peak current
Chain of human recombinant GABAA α1β3γ2 receptor (P14867 28-456): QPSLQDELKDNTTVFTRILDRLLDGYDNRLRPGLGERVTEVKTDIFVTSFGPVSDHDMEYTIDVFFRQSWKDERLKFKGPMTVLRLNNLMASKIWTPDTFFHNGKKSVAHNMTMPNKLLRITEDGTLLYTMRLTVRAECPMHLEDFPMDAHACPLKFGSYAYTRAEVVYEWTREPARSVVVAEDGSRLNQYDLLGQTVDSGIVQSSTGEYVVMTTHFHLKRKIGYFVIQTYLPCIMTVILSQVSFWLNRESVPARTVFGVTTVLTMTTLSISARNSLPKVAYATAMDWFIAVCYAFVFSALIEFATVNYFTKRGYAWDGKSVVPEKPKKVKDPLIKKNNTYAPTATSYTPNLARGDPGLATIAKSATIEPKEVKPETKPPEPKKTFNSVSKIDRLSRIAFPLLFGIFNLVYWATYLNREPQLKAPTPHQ
Chain of human recombinant GABAA α1β3γ2 receptor (P28472 26-473 partner): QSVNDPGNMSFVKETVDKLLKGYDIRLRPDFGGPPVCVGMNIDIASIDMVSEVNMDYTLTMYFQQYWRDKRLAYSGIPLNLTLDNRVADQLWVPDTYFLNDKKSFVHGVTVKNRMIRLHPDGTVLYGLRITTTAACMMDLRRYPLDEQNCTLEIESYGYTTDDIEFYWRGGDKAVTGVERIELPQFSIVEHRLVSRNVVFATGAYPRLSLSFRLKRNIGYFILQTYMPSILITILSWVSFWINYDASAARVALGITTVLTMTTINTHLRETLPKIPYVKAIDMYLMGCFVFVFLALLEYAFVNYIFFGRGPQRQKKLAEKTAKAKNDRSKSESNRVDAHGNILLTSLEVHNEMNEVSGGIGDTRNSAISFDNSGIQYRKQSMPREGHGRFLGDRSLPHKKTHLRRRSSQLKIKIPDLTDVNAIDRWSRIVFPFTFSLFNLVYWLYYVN
Chain of human recombinant GABAA α1β3γ2 receptor (P18507 40-475): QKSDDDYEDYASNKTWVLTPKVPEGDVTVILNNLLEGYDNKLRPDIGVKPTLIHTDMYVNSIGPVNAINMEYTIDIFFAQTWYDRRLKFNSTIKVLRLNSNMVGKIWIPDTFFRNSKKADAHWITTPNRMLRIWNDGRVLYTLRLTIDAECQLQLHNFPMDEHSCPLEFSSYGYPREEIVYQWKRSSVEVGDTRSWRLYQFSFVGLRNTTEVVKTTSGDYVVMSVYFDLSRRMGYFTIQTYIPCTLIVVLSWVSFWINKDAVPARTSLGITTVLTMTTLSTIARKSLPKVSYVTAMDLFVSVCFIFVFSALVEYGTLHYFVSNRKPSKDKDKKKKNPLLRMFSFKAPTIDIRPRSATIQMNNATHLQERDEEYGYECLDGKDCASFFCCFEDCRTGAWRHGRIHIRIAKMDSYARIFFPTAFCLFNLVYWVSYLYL
Method: as §1, §2, §3, §4, §5

[3] = target: T1, human recombinant GABAA α5β3γ2 receptor; experiment: Binding assay, [3H]Ro151788 displacement on membranes of HEK cells; conditions: 0.5 nM [3H]Ro151788, 60 minutes at 4° C., Cheng-Prusoff; read-out: hGABAA α5 Ki
Outline: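 HEK-cell membranes with recombinant human α5β3γ2 incubated 60 min at 4 °C with 0.5 nM [3H]Ro151788 in 50 mM Tris pH 7.4, 100 mM KCl; nonspecific binding with 10 μM diazepam. Filtration, scintillation count; % inhibition of specific binding, IC50 from ≥6 concentrations in triplicate, Ki via Cheng-Prusoff.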

T1 sequence (P31644 32-462): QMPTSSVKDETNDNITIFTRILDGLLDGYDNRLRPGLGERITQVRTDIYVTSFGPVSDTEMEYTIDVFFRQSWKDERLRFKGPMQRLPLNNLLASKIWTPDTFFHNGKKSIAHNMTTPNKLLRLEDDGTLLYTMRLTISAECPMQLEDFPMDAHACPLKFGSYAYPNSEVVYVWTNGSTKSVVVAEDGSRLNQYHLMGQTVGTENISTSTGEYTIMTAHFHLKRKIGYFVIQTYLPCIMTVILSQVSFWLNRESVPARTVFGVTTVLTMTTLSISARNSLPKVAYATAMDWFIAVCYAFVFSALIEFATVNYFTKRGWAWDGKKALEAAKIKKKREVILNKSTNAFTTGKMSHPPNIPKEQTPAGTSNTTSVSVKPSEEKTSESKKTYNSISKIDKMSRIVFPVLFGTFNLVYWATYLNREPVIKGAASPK
T1 sequence (P28472 26-473 partner): as the sequence (P28472 26-473 partner) above
T1 sequence (P18507 40-475): as the sequence (P18507 40-475) above

| SMILES | hGABAA α5 efficacy [1] [%] | hGABAA α1 efficacy [2] [%] | Ki [3] [nM] |
| --- | --- | --- | --- |
| Cc1nnn(-c2ccc(Cl)cc2)c1COc1ccc2c(n1)CCN(C(=O)C1CCOC1)C2 (centres unmarked) [Example 29, 2-{[1-(4-chlorophenyl)-4-methyl-1H-1,2,3-triazol-5-yl]methoxy}-6-(oxolane-3-carbonyl)-5,6,7,8-tetrahydro-1,6-naphthyridine] | −25 | −2 |  |
| Cc1onc(-c2ccc(F)cc2)c1COc1ccc2c(n1)CCN(C(=O)C1CC(=O)N(C)C1)C2 (centres unmarked) [Example 13, 4-(2-{[3-(4-fluorophenyl)-5-methyl-1,2-oxazol-4-yl]methoxy}-5,6,7,8-tetrahydro-1,6-naphthyridine-6-carbonyl)-1-methylpyrrolidin-2-one] | −34 | −3 | 4.3 |
| CC(=O)N1Cc2ccc(OCc3c(C)nnn3-c3ccc(F)cc3)nc2C1 [Example 45, 1-(2-{[1-(4-fluorophenyl)-4-methyl-1H-1,2,3-triazol-5-yl]methoxy}-5H,6H,7H-pyrrolo[3,4-b]pyridin-6-yl)ethan-1-one] | −30 | −7 | 3.2 |
| Cc1nnn(-c2ccc(F)cc2)c1COc1ccc2c(n1)CCN(C(=O)C1CCS(=O)(=O)CC1)C2 [Example 23, 4-(2-{[1-(4-fluorophenyl)-4-methyl-1H-1,2,3-triazol-5-yl]methoxy}-5,6,7,8-tetrahydro-1,6-naphthyridine-6-carbonyl)-1lambda6-thiane-1,1-dione] | −47 | −4 | 45 |
| Cc1onc(-c2ccc(F)cc2)c1COc1ccc2c(n1)CCN(C(=O)C1CCS(=O)(=O)CC1)C2 [Example 6, 4-(2-{[3-(4-fluorophenyl)-5-methyl-1,2-oxazol-4-yl]methoxy}-5,6,7,8-tetrahydro-1,6-naphthyridine-6-carbonyl)-1lambda6-thiane-1,1-dione] | −38 | −10 | 2.7 |
| Cc1nnn(-c2ccc(F)cc2)c1COc1ccc2c(n1)CN(C(=O)C1CC1)C2 [Example 47, cyclopropyl(2-{[1-(4-fluorophenyl)-4-methyl-1H-1,2,3-triazol-5-yl]methoxy}-5,7-dihydro-6H-pyrrolo[3,4-b]pyridin-6-yl)methanone] | −34 | −10 | 7.2 |
| Cc1nnn(-c2ccc(F)cc2)c1COc1ccc2c(n1)CCN(C(=O)[C@H]1CCOC1)C2 [Example 18, 2-{[1-(4-fluorophenyl)-4-methyl-1H-1,2,3-triazol-5-yl]methoxy}-6-[(3S)-oxolane-3-carbonyl]-5,6,7,8-tetrahydro-1,6-naphthyridine] | −45 | −5 | 50 |
| CC(=O)N1CCc2nc(OCc3c(C)nnn3-c3ccc(F)cc3)ccc2C1 [Example 14, 1-(2-{[1-(4-fluorophenyl)-4-methyl-1H-1,2,3-triazol-5-yl]methoxy}-5,6,7,8-tetrahydro-1,6-naphthyridin-6-yl)ethan-1-one] | −36 | 0 | 28 |
| Cc1onc(-c2ccc(F)cc2)c1COc1ccc2c(n1)CCN(C(=O)C1CCOC1)C2 (centres unmarked) [Example 2, 2-{[3-(4-fluorophenyl)-5-methyl-1,2-oxazol-4-yl]methoxy}-6-(oxolane-3-carbonyl)-5,6,7,8-tetrahydro-1,6-naphthyridine] | −40 | −14 | 7 |
| Cc1nnn(-c2ccc(F)cc2)c1COc1ccc2c(n1)CCN(C(=O)NC1CCOC1)C2 (centres unmarked) [Example 78, 2-{[1-(4-fluorophenyl)-4-methyl-1H-1,2,3-triazol-5-yl]methoxy}-N-(oxolan-3-yl)-5,6,7,8-tetrahydro-1,6-naphthyridine-6-carboxamide] | −34 | −3 | 28 |
| Cc1nnn(-c2ccc(F)cc2)c1COc1ccc2c(n1)CN(C(=O)CC(C)C)C2 [Example 56, 1-(2-{[1-(4-fluorophenyl)-4-methyl-1H-1,2,3-triazol-5-yl]methoxy}-5H,6H,7H-pyrrolo[3,4-b]pyridin-6-yl)-3-methylbutan-1-one] | −40 | −14 | 17 |
| Cc1nnn(-c2ccc(F)cc2)c1COc1ccc2c(n1)CCN(C(=O)C1CCOCC1)C2 [Example 28, 2-{[1-(4-fluorophenyl)-4-methyl-1H-1,2,3-triazol-5-yl]methoxy}-6-(oxane-4-carbonyl)-5,6,7,8-tetrahydro-1,6-naphthyridine] | −40 | −6 | 43 |
| Cc1nnn(-c2ccc(F)cc2)c1COc1ccc2c(n1)CN(C(=O)C1CCCO1)C2 (centres unmarked) [Example 61, 1-(4-fluorophenyl)-4-methyl-5-({[6-(oxolane-2-carbonyl)-5H,6H,7H-pyrrolo[3,4-b]pyridin-2-yl]oxy}methyl)-1H-1,2,3-triazole] | −41 | −20 | 4.8 |
| Cc1nnn(-c2ccc(F)cc2)c1COc1ccc2c(n1)CCN(C(=O)C1CCOC1)C2 (centres unmarked) [Example 16, 2-{[1-(4-fluorophenyl)-4-methyl-1H-1,2,3-triazol-5-yl]methoxy}-6-(oxolane-3-carbonyl)-5,6,7,8-tetrahydro-1,6-naphthyridine] | −39 | −7 | 42 |
| Cc1onc(-c2ccc(F)cc2)c1COc1ccc2c(n1)CCN(C(=O)CS(C)(=O)=O)C2 [Example 8, 1-(2-{[3-(4-fluorophenyl)-5-methyl-1,2-oxazol-4-yl]methoxy}-5,6,7,8-tetrahydro-1,6-naphthyridin-6-yl)-2-methanesulfonylethan-1-one] | −39 | −2 | 3.7 |
| Cc1nnn(-c2ccc(F)cc2)c1COc1ccc2c(n1)CCN(C(=O)NC1CC(=O)N(C)C1)C2 (centres unmarked) [Example 75, 2-{[1-(4-fluorophenyl)-4-methyl-1H-1,2,3-triazol-5-yl]methoxy}-N-(1-methyl-5-oxopyrrolidin-3-yl)-5,6,7,8-tetrahydro-1,6-naphthyridine-6-carboxamide] | −35 | −3 | 38 |
| Cc1nnn(-c2ccc(F)cc2)c1COc1ccc2c(n1)CCN(C(=O)C1CCCO1)C2 (centres unmarked) [Example 15, 2-{[1-(4-fluorophenyl)-4-methyl-1H-1,2,3-triazol-5-yl]methoxy}-6-(oxolane-2-carbonyl)-5,6,7,8-tetrahydro-1,6-naphthyridine] | −43 | −8 | 42 |
| Cc1nnn(-c2ccc(F)cc2)c1COc1ccc2c(n1)CCN(C(=O)[C@@H]1CCOC1)C2 [Example 17, 2-{[1-(4-fluorophenyl)-4-methyl-1H-1,2,3-triazol-5-yl]methoxy}-6-[(3R)-oxolane-3-carbonyl]-5,6,7,8-tetrahydro-1,6-naphthyridine] | −37 | −6 | 69 |
| Cc1onc(-c2ccc(F)cc2)c1COc1ccc2c(n1)CCN(C(=O)C1CCOCC1)C2 [Example 9, 2-{[3-(4-fluorophenyl)-5-methyl-1,2-oxazol-4-yl]methoxy}-6-(oxane-4-carbonyl)-5,6,7,8-tetrahydro-1,6-naphthyridine] | −37 | −9 | 6.2 |
